Source: US20090117167A1 (AlgoRx, priority 2002, published 2009)
Several values for one entry are separate records, joined by “and”; a condition that tells them apart may be missing. Equal entries are not always repeated.

Experiments:
[1] = test system: animal models of inflammatory pain (formalin test); details: administered locally; cited from earlier work
[2] = test system: animal models of neuropathic pain (spinal nerve ligation); details: administered locally; cited from earlier work
[3] = test system: subjects with osteoarthritis of the knee; test: Osteoarthritis of the knee safety study: safety and tolerability of intra-articular capsaicin; format: in vivo, human; details: for patients reporting transient burning pain / post injection hyperalgesia after instillation: 4 subjects
Procedure: The primary objective of the study was to evaluate the safety and tolerability of intra-articular capsaicin, when co-administered with intra-articular local anesthetic, compared to placebo, in subjects with end-stage osteoarthritis of the knee, already scheduled to receive knee replacements.
The study was designed to include 16 evaluation subjects. […] Sixteen subjects completed the study.
Patients were treated randomly and in double-blind fashion in four treatment groups, with each group having a progressively longer interval between the intra-articular administration of study medication and subsequent total knee replacement (2, 4, 7, and 14 days). […] Gross and microscopic pathology analysis was completed for each treatment group before the next treatment group was treated.
(§1) Each subject had 3 study visits: a Screening Day (Day −7 to −1), the Treatment Day (Day 0), and a Post-Treatment Day (scheduled for Day +2, +4, +7, or +14). On the Treatment Day the subject was randomized, pre-treatment evaluation was performed. The patients were brought into the procedure room, and a VAS pain score was taken (0 mm-no pain, 100 mm-extreme pain). Once the patient had marked his or her pain on the card, he/she was prepped for knee cannulation. Once the cannula was placed, the patient received by intra-articular infiltration, 3 mg/kg (maximum dose of 200 mg) of 2% lignocaine into the knee scheduled to be replaced.
(§2) VAS pain scores as well as verbal reports were taken immediately following administration, as well as prior to knee replacement surgery. No subjects discontinued from the study due to adverse events.

[4] = set-up: species or system human; details: in vivo
Procedure: The pharmacokinetic parameters of Cmax, Tmax, AUC(0-tlast) and t½ were evaluated.

[5] = test system: subjects with osteoarthritis of the knee; test: Osteoarthritis of the knee safety study: VAS pain score at the target knee; format: in vivo, human
Procedure: as §1, §2
On the Post-Treatment Day, study evaluation was performed followed by the scheduled knee replacement, with intra-operative bone and soft tissue biopsies performed for subsequent examination. […] This therefore left the 3 placebo and 9 active patients from the 4 day, 7 day, and 14 day cohorts.

[6] = test system: subjects undergoing transpositional osteotomy (bunionectomy); test: Bunionectomy efficacy study: VAS pain score and rescue medication; format: in vivo, human; details: for VAS pain score at operation site: 1000 μg into wound, mean +/- SEM, n = 11
Procedure: The primary efficacy endpoint was the proportion of subjects in each treatment group requiring opioid analgesia in the first 24 hours post-operatively. The proportions were compared amongst treatment groups using the Cochran-Haenszel test. Secondary efficacy end points included: i) proportion of subjects in each treatment group requiring opioid analgesia in the first 36 hour period post-operatively (Similarly, the proportions were compared amongst treatment groups using the Cochran-Haenszel test); ii) proportion of subjects in each treatment group requiring opioid analgesia in the 10 day period post-operatively (Similarly, the proportions were compared amongst treatment groups using the Cochran-Haenszel test); iii) time to first usage of opioid analgesia in each treatment group (a survival analysis approach will be used: the product-limit (Kaplan-Meier) method will be applied to time to first usage of opioid analgesia. The median time to first usage of opioid analgesia will be estimated in both treatment groups. Pairwise comparisons will be performed to test for equality of the survival curves between the 2 treatment groups using both the log-rank and the Wilcoxon test); iv) total usage of analgesia in each treatment group (the total usage of analgesia will be compared by an analysis of variance with treatment and center as independent variables. A pairwise comparison will be performed between the treatment groups); and v) VAS assessment of pain at the site of operation in each treatment group (The VAS score at each time point will be compared by an analysis of variance with treatment and center as independent variables. A pairwise comparison will be performed between the treatment groups). […] The efficacy analysis was performed on the data obtained ten days postoperatively. The safety analysis was performed based on the safety data for the entire study, including the 6 week and 12 week follow-up periods. The blind was broken at the time the efficacy analysis was performed. However, the individual treatment assignment was available to the statistical analysis group only. All other personnel involved in the study, including the Investigator, study monitor and proprietary staff, remained blinded until the entire study was completed.
The study was designed to include 40 evaluation subjects. […] Each subject had six (6) study visits: a Screening Day (Day −28 to −1), an Operation Day (Day 0), and four (4) Follow-up visits (scheduled for Days 3, 10 and weeks 6 and 12).
On Operation Day (Day 0) the following was performed: a) Pre-operation: Prior to the initiation of an ankle block, inclusion/exclusion criteria assessment was performed. […] Immediately prior to wound closure, the Investigator slowly dripped the study medication (4 mL) from a syringe into the wound, ensuring even tissue exposure. The wound was then be closed according to normal practices and procedures.
In the 24 hours following administration of study medication, vital signs (supine pulse rate and blood pressure) were recorded at 1, 2, 4 and 24 hours post administration. VAS assessment of pain at the operation site was performed at 1, 4, 8, 12 and 24 hours post administration. In those instances where VAS measurements coincide with blood sampling procedures, the VAS assessment was performed first. […] The quantity of each blood sample was 10 mL. Laboratory safety assessments, e.g., haematology, biochemistry, urinalysis were performed at 24 hours post administration. Adverse events were spontaneously reported by the subject and recorded. Rescue analgesia medication was provided to the subject if required (initially diclofenac 50 mg, repeated at 8 hourly intervals if necessary). When diclofenac was judged by the Investigator to provide inadequate pain relief then the subject was provided with alfentanil 1 mg, repeated at 6 hourly intervals, if necessary.

[7] = organic solvents; cited from earlier work
rats = details: systemic, cited from earlier work

CN(C)CCC=C1c2ccccc2CCc2ccccc21 [amitriptyline]
local antinociceptive action [1]: produced local antinociceptive actions | local antinociceptive action [2]: produced local antinociceptive actions

CNCCCN1c2ccccc2CCc2ccccc21 [desipramine]
local antinociceptive action [1]: produced local antinociceptive actions | local antinociceptive action [2]: produced local antinociceptive actions

COc1cc(CNC(=O)CCCC/C=C/C(C)C)ccc1O [purified capsaicin, N-(4-hydroxy-3-methoxybenzyl)-8-methylnon-trans-6-enamide]
patients reporting transient burning pain / post injection hyperalgesia after instillation ([3]; 10 μg intra-articular after 2% lignocaine): no subjects | patients reporting transient burning pain / post injection hyperalgesia after instillation ([3]; 10 μg intra-articular after 2% lignocaine, listed as capsaicin): 0 of 4 | duration of post-administration (hyper) algesic pain ([3]; 100 μg dose group, individual subject): 9 min | patients reporting transient burning pain / post injection hyperalgesia after instillation ([3]; 100 μg intra-articular after 2% lignocaine): 1 | patients reporting transient burning pain / post injection hyperalgesia after instillation ([3]; 100 μg intra-articular after 2% lignocaine, listed as capsaicin): 1 of 4 | patients reporting transient burning pain / post injection hyperalgesia after instillation ([3]; 300 μg intra-articular after 2% lignocaine): 4 | patients reporting transient burning pain / post injection hyperalgesia after instillation ([3]; 300 μg intra-articular after 2% lignocaine, listed as capsaicin): 4 of 4 | effects on laboratory safety parameters or vital signs ([3]; 10-300 μg): no treatment related effects | effects on soft tissue, cartilage, or bone upon histopathological examination ([3]; 10-300 μg): no treatment related effects | signs of erythema, edema, or hemorrhage at the site of injection ([3]; 10-300 μg): no treatment related signs | systemic side effects ([3]; 10-300 μg): No treatment related systemic side effects | average duration of hyperalgesia ([3]; all cases): less than thirty minutes | gross and microscopic pathology ([3]; knee replaced 2-14 days after dosing): normal | plasma concentrations compared with 100 μg or 300 μg dose groups [4]: clearly lower | VAS reduction, prior to administration vs day of surgery ([5]; 9 active patients of 4, 7 and 14 day cohorts, 10-300 μg pooled): 62±14% | median decrease from baseline to pre-operative time point in VAS for pain at target knee vs placebo ([5]; all 3 capsaicin dose groups): substantially greater | treatment related indication of efficacy (VAS) ([5]; any of the dose levels 10, 100, 300 μg): No clear treatment related indication of efficacy | effect on pain score and use of rescue ([6]; 1000 μg into the wound prior to wound closure): reduced both pain score as well as the use of rescue | time at which subject required rescue ([6]; 1000 μg, individual subjects): 1 h and 4 h and 5 h and 8 h and 12 h | VAS pain score at operation site ([6]; 8 hr): 5.5 +/− 2.3 | VAS pain score at operation site ([6]; 12 hr): 8.2 +/− 3.8 | VAS pain score at operation site ([6]; 24 hr): 1.9 +/− 1.0 | VAS pain score at operation site ([6]; 48 hr): 5.9 +/− 2.5 | solubility in alcohol, ether, benzene and chloroform [7]: freely soluble | effect on pain threshold (rats; final doses 50 mg/kg or greater): pain threshold elevated | effect on radiation induced hyperalgesia and pain threshold (rats; final doses of 25 mg/kg or less, prior to ultra violet radiation): prevented radiation induced hyperalgesia, but did not elevate the pain threshold above normal range
